Data from patent publication US7109207B2, “Spirosubstituted piperidines as selective melanin concentrating hormone receptor antagonists for the treatment of obesity” (Schering Corporation, priority 2002, dated 2006).
pKi: −log10 of the molar value.

target: T1, MCH receptor (Homo sapiens, UniProt Q99705); assay: MCH Receptor Binding Assay ([125I]-MCH, SPA, membranes from CHO cells expressing the MCH receptor); conditions: CHO cell membranes, read-out: Activity (Ki class)
T1 construct: expressed in transfected cells; host or cells: CHO cells
Experimental: MCH Receptor Binding Assay:
Membranes from CHO cells expressing the MCH receptor were prepared by lysing cells with 5 mM HEPES for 15 min at 4C. Cell lysates were centrifuged ([…], 15 min) and the pellet was resuspended in 5 mM HEPES. For each 96-well plate (Microlite, Dynex Technologies), 1 mg of cell membranes were incubated with 10 mg of wheat germ agglutinin SPA beads (Amersham) for 5 min at 4 C in a volume of 10 ml of binding buffer (25 mM HEPES, 10 mM MGCl2, 10 mM NaCl, 5 mM MnCl2, 0.1% BSA). The membrane/bead mixture was centrifuged (1500×g, 3.5 min), the supernatant was aspirated, and the pellet was resuspended in 10 ml binding buffer. The centrifugation, aspiration and resuspension were then repeated. The membrane/bead mixture (100 μl) was then added to 96-well plates containing 50 μof 500 pM [^125I]-MCH (NEN) and […] of the appropriate concentration of compound (4× the desired final concentration). Nonspecific binding was determined by including 1 μM MCH in the binding reaction. The binding reaction was incubated at room temperature for 2 h. Plates were then analyzed in a TOPCOUNT microplate scintillation counter (Packard). Data was analyzed and Ki values were determined using GraphPad Prism.

T1 sequence (Q99705 whole entry): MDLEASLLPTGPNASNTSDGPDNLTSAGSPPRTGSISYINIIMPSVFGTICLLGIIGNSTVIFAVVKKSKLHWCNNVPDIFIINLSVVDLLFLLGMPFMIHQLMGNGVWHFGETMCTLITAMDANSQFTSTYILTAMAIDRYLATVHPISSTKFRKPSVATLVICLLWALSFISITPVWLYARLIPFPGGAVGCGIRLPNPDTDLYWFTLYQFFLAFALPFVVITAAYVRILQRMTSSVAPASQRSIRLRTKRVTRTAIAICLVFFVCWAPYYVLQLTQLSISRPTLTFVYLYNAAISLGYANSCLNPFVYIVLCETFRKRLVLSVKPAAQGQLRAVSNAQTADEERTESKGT

| SMILES | pKi |
| --- | --- |
| CC(C)N1CCC2(CC1)c1ccc(-c3cccc(C#N)c3)cc1CCN2CC(=O)Nc1cc(Cl)cc(Cl)c1 [Compound 7a] | > 7.52 |
| CC(C)N1CCC2(CC1)c1ccc(-c3cccc(C#N)c3)cc1CCN2CC(=O)Nc1ccc(F)c(Cl)c1 [Compound 7b] | 7.00 to 7.52 |
| CC(C)N1CCC2(CC1)c1ccc(-c3cccc(C#N)c3)cc1CCN2CC(=O)Nc1cc(F)cc(F)c1 [Compound 7c] | 7.00 to 7.52 |
| CC(C)N1CCC2(CC1)c1ccc(-c3cccc(C#N)c3)cc1CCN2CC(=O)Nc1ccc(Cl)c(C(F)(F)F)c1 [Compound 7d] | < 7.00 |
| CC(C)N1CCC2(CC1)c1ccc(-c3cccc(C#N)c3)cc1CCN2CC(=O)Nc1ccc(Cl)c(Cl)c1 [Compound 7e] | < 7.00 |
| N#Cc1cccc(-c2ccc3c(c2)CCN(CC(=O)Nc2ccc(F)c(Cl)c2)C32CCN(CC3CC3)CC2)c1 [Compound 8a] | > 7.52 |
| N#Cc1cccc(-c2ccc3c(c2)CCN(CC(=O)Nc2ccc(Cl)cc2)C32CCN(CC3CC3)CC2)c1 [Compound 8b] | < 7.00 |
| N#Cc1cccc(-c2ccc3c(c2)CCN(CC(=O)Nc2cccc(Cl)c2)C32CCN(CC3CC3)CC2)c1 [Compound 8c] | 7.00 to 7.52 |
| N#Cc1cccc(-c2ccc3c(c2)CCN(CC(=O)Nc2ccc(F)c(F)c2)C32CCN(CC3CC3)CC2)c1 [Compound 8d] | 7.00 to 7.52 |
| N#Cc1cccc(-c2ccc3c(c2)CCN(CC(=O)Nc2ccc(F)c(C(F)(F)F)c2)C32CCN(CC3CC3)CC2)c1 [Compound 8e] | > 7.52 |
| N#Cc1cccc(-c2ccc3c(c2)CCN(CC(=O)Nc2cc(F)cc(C(F)(F)F)c2)C32CCN(CC3CC3)CC2)c1 [Compound 8f] | 7.00 to 7.52 |
| N#Cc1cccc(-c2ccc3c(c2)CCN(CC(=O)Nc2cc(F)cc(F)c2)C32CCN(CC3CC3)CC2)c1 [Compound 8g] | 7.00 to 7.52 |
| N#Cc1cccc(-c2ccc3c(c2)CCN(CC(=O)Nc2ccc(Cl)c(Cl)c2)C32CCN(CC3CC3)CC2)c1 [Compound 8h] | < 7.00 |
| N#Cc1cccc(-c2ccc3c(c2)CCN(CC(=O)Nc2ccc(Cl)c(C(F)(F)F)c2)C32CCN(CC3CC3)CC2)c1 [Compound 8i] | < 7.00 |

The next lines start with the values.

| pKi | SMILES |
| --- | --- |
| 7.00 to 7.52 | N#Cc1cccc(-c2ccc3c(c2)CCN(CC(=O)Nc2cc(Cl)cc(Cl)c2)C32CCNCC2)c1 [Compound 10c] |
| > 7.52 | N#Cc1cccc(-c2ccc3c(c2)CCN(CC(=O)Nc2cc(Cl)cc(Cl)c2)C32CCN(C3CCCCCC3)CC2)c1 [Compound 11a] |
| > 7.52 | N#Cc1cccc(-c2ccc3c(c2)CCN(CC(=O)Nc2cc(Cl)cc(Cl)c2)C32CCN(C3CCC3)CC2)c1 [Compound 11b] |
| > 7.52 | N#Cc1cccc(-c2ccc3c(c2)CCN(CC(=O)Nc2cc(Cl)cc(Cl)c2)C32CCN(CC3CC3)CC2)c1 [Compound 11c] |
| > 7.52 | N#Cc1cccc(-c2ccc3c(c2)CCN(CC(=O)Nc2cc(Cl)cc(Cl)c2)C32CCN(C3CCCC3)CC2)c1 [Compound 11d] |
| 7.00 to 7.52 | N#Cc1cccc(-c2ccc3c(c2)CCN(CC(=O)Nc2cc(Cl)cc(Cl)c2)C32CCN(CCO)CC2)c1 [Compound 11e] |
| 7.00 to 7.52 | CN1CCC2(CC1)c1ccc(-c3cccc(C#N)c3)cc1CCN2CC(=O)Nc1cc(Cl)cc(Cl)c1 [Compound 11f] |
| 7.00 to 7.52 | CCN1CCC2(CC1)c1ccc(-c3cccc(C#N)c3)cc1CCN2CC(=O)Nc1cc(Cl)cc(Cl)c1 [Compound 11g] |
| > 7.52 | N#Cc1cccc(-c2ccc3c(c2)CCN(CC(=O)Nc2cc(Cl)cc(Cl)c2)C32CCN(C3CCOCC3)CC2)c1 [Compound 11h] |
| 7.00 to 7.52 | N#Cc1cccc(-c2ccc3c(c2)CCN(CC(=O)Nc2cc(Cl)cc(Cl)c2)C32CCN(Cc3ccoc3)CC2)c1 [Compound 11i] |
| 7.00 to 7.52 | N#Cc1cccc(-c2ccc3c(c2)CCN(CC(=O)Nc2cc(Cl)cc(Cl)c2)C32CCN(C3CCSC3)CC2)c1 (stereo not shown) [Compound 11j] |
| < 7.00 | CC(C)N1CCC2(CC1)c1ccc(-c3cccc(C#N)c3)cc1CCN2Cc1nc2ccccc2[nH]1 [Compound 12a] |
| < 7.00 | N#Cc1cccc(-c2ccc3c(c2)CCN(Cc2nc4cc(Cl)c(Cl)cc4[nH]2)C32CCNCC2)c1 [Compound 12d] |
| < 7.00 | N#Cc1cccc(-c2ccc3c(c2)CCN(Cc2nc4cc(F)c(Cl)cc4[nH]2)C32CCNCC2)c1 [Compound 12e] |
| < 7.00 | N#Cc1cccc(-c2ccc3c(c2)CCN(Cc2nc4cc(Cl)c(Cl)cc4[nH]2)C32CCN(CC3CC3)CC2)c1 [Compound 12f] |
| < 7.00 | CC(C)(C)OC(=O)N1CCC2(CC1)c1ccc(-c3cccc(C#N)c3)cc1CCN2CC(=O)Nc1cc(Cl)cc(Cl)c1 [Compound 30a] |
| < 7.00 | CC(=O)N1CCC2(CC1)c1ccc(-c3cccc(C#N)c3)cc1CCN2CC(=O)Nc1cc(Cl)cc(Cl)c1 [Compound 30b] |
| < 7.00 | CS(=O)(=O)N1CCC2(CC1)c1ccc(-c3cccc(C#N)c3)cc1CCN2CC(=O)Nc1cc(Cl)cc(Cl)c1 [Compound 30c] |
| < 7.00 | CN(C)S(=O)(=O)N1CCC2(CC1)c1ccc(-c3cccc(C#N)c3)cc1CCN2CC(=O)Nc1cc(Cl)cc(Cl)c1 [Compound 30d] |

same assay, conditions: CHO cell membranes, read-out: Ki value

| pKi | SMILES |
| --- | --- |
| 7.96 | N#Cc1cccc(-c2ccc3c(c2)CCN(CC(=O)Nc2cc(Cl)cc(Cl)c2)C32CCN(C3CCCCCC3)CC2)c1 [Compound 11a] |
